This test has as its system CNV (choroidal neovascularization). Briefly: Laser-induced CNV volume, confocal evaluation of isolectin B4 stained RPE-choroid flatmounts. It counts as in vivo. The settings on record: C57BL/6J mice, laser injury, blockade of CCR3 ligand by neutralizing antibody injected into the vitreous humor; compared to control antibodies, all Ps<0.001. As to the method: Laser photocoagulation (532 nm, 200 mW, 100 ms, 75 μm) (OCULIGHT™ GL, Index Corporation) was performed (volume studies: 3/eye; protein analyses/flow cytometry: 12/eye) on both eyes of each animal to induce CNV (choroidal neovascularization). CNV volumes were measured by scanning laser confocal microscope (TCS SP, Leica) with 0.5% FITC-Griffonia simplicifolia Isolectin B4 (Vector Laboratories). CNV was induced by laser injury in C57BL/6J and Ccr3^−/− mice and volumes measured 7 days later by confocal evaluation of Griffonia simplicifolia Isolectin B4 staining of RPE-choroid flatmounts. Neutralizing antibodies (Ab) against CCR3, eotaxin (CCL-11), eotaxin-2 (CCL-24), RANTES, MCP-3 or control goat IgG or rat IgG2a were injected into the vitreous humor following injury.
Because the probability of each laser lesion developing CNV is influenced by the group to which it belongs, the mouse, the eye, and the laser spot, the mean lesion volumes were compared using a linear mixed model with a split plot repeated measures design. The whole plot factor was the genetic group to which the animal belonged while the split plot factor was the eye. Statistical significance was determined at the 0.05 level. Post hoc comparison of means was constructed with a Bonferroni adjustment for multiple comparisons.

As to eotaxin, the “suppression of CNV” value turned out to be 45%.

(Values after patent US11345756B2, “CCR3 inhibition for ocular angiogenesis and macular degeneration” (University of Kentucky Research Foundation, priority 2006, dated 2022).)
